Laboratory results taken from article PMC2904774 (PLoS Pathogens, 2010).

Target: T1, NUE (CT737), GST-NUE (Chlamydia trachomatis, UniProt O84742)
T1 construct: gene CT_737
Details: core histones or recombinant H2B, H3, H4 as acceptor, also automethylation; 50 mM Tris pH 8, 20 mM KCl, 10 mM MgCl2, 1 mM DTT, 30 °C, 1 h; labelled compound

T1 sequence (O84742 entry or part of it): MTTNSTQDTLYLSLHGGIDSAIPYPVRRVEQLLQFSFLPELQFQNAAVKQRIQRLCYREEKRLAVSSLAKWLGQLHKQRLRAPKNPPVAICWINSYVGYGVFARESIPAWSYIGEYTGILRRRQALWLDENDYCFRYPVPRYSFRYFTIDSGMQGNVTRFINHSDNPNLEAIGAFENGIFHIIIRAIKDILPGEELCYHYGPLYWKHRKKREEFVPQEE

Structure (SMILES): C[S+](CC[C@H](N)C(=O)O)C[C@H]1O[C@@H](n2cnc3c(N)ncnc32)[C@H](O)[C@@H]1O (stereo partly drawn) [SAM, S-adenosyl-L-methionine]
- in vitro methyltransferase assay, 14C autoradiography of SDS-PAGE: in vitro methyltransferase assays using GST-NUE purified from E. coli and mammalian histones
